From PubChem BioAssay AID248 (DTP/NCI, 2004)
Values joined by “and” are separate entries in the source; they are usually repeats but may differ in a detail not shown here. Equal values may be shown once. Toxic doses and inconclusive results are not listed. Rule as the data show it: active = T/C of 150% or more; inactive = T/C below 125%.

Test system: L1210 leukemia ip in BDF1 mice, survival T/C
Experiment: NCI In Vivo Anticancer Drug Screen. Data for tumor model L1210 Leukemia (intraperitoneal) in B6D2F1 (BDF1) mice
Settings: endpoint: mean survival time, higher = longer survival
How it was run: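 In this screen, tumor-bearing mice given compound are compared to those given vehicle, and their survival values are reported as a treated-to-control quotient.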

[1] = dose: 25.0 mg/kg/injection, schedule: Q01DX009 (ip), vehicle: saline
[2] = dose: 50.0 mg/kg/injection, schedule: Q01DX009 (ip), vehicle: saline
[3] = dose: 100.0 mg/kg/injection, schedule: Q01DX001 (ip), vehicle: saline
[4] = dose: 200.0 mg/kg/injection, schedule: Q01DX001 (ip), vehicle: saline
[5] = dose: 400.0 mg/kg/injection, schedule: Q01DX001 (ip), vehicle: saline
[6] = dose: 100.0 mg/kg/injection, schedule: Q01DX001 (ip), vehicle: other
[7] = dose: 50.0 mg/kg/injection, schedule: Q01DX001 (ip), vehicle: saline
[8] = dose: 100.0 mg/kg/injection, schedule: Q01DX009 (ip), vehicle: Klucel (hydroxypropylcellulose) (HPC)
[9] = dose: 100.0 mg/kg/injection, schedule: Q04DX003 (ip), vehicle: Klucel (hydroxypropylcellulose) (HPC)
[10] = dose: 200.0 mg/kg/injection, schedule: Q01DX009 (ip), vehicle: Klucel (hydroxypropylcellulose) (HPC)
[11] = dose: 200.0 mg/kg/injection, schedule: Q04DX003 (ip), vehicle: Klucel (hydroxypropylcellulose) (HPC)
[12] = dose: 400.0 mg/kg/injection, schedule: Q01DX009 (ip), vehicle: Klucel (hydroxypropylcellulose) (HPC)
[13] = dose: 400.0 mg/kg/injection, schedule: Q04DX003 (ip), vehicle: Klucel (hydroxypropylcellulose) (HPC)
[14] = dose: 100.0 mg/kg/injection, schedule: Q01DX001 (ip), vehicle: Klucel (hydroxypropylcellulose) (HPC)
[15] = dose: 200.0 mg/kg/injection, schedule: Q01DX001 (ip), vehicle: Klucel (hydroxypropylcellulose) (HPC)
[16] = dose: 400.0 mg/kg/injection, schedule: Q01DX001 (ip), vehicle: Klucel (hydroxypropylcellulose) (HPC)

Measured: T/C

C=CC(=O)NCNC(C)C (tested in a mixture with another compound)
inactive: dose: 12.5 mg/kg/injection, schedule: Q01DX009 (ip), vehicle: Klucel (hydroxypropylcellulose) (HPC) 97 % of control | dose: 12.5 mg/kg/injection, schedule: Q01DX009 (ip), vehicle: saline 100 % of control and 93 % of control | dose: 25.0 mg/kg/injection, schedule: Q01DX009 (ip), vehicle: Klucel (hydroxypropylcellulose) (HPC) 97 % of control | [1] 95 % of control | dose: 50.0 mg/kg/injection, schedule: Q01DX009 (ip), vehicle: Klucel (hydroxypropylcellulose) (HPC) 90 % of control | [2] 100 % of control

CCOc1ccc(-c2cc(=O)c3c(OC)c(OC)c(OC)c(OC)c3o2)cc1
inactive: dose: 100.0 mg/kg/injection, schedule: Q01DX001 (sc), vehicle: steriod suspending solution 111 % of control | dose: 200.0 mg/kg/injection, schedule: Q01DX001 (sc), vehicle: steriod suspending solution 96 % of control | dose: 400.0 mg/kg/injection, schedule: Q01DX001 (sc), vehicle: steriod suspending solution 96 % of control

O=C(NNC1CCN(Cc2ccccc2)CC1)c1ccccc1
inactive: dose: 10.0 mg/kg/injection, schedule: Q01DX009 (ip), vehicle: saline with Tween-80 95 % of control | dose: 10.0 mg/kg/injection, schedule: Q04DX003 (ip), vehicle: saline with Tween-80 100 % of control | dose: 20.0 mg/kg/injection, schedule: Q01DX009 (ip), vehicle: saline with Tween-80 103 % of control | dose: 20.0 mg/kg/injection, schedule: Q04DX003 (ip), vehicle: saline with Tween-80 102 % of control | dose: 40.0 mg/kg/injection, schedule: Q01DX009 (ip), vehicle: saline with Tween-80 93 % of control | dose: 40.0 mg/kg/injection, schedule: Q04DX003 (ip), vehicle: saline with Tween-80 106 % of control

c1cc2[nH]c1C1(CCCC1)c1ccc([nH]1)C1(CCCC1)c1ccc([nH]1)C1(CCCC1)c1ccc([nH]1)C21CCCC1
inactive: [3] 102 % of control | [4] 103 % of control | [5] 94 % of control

NC(=O)c1cc(N2CC2)c([N+](=O)[O-])cc1[N+](=O)[O-]
inactive: dose: 5.0 mg/kg/injection, schedule: Q01DX001 (ip), vehicle: other 110 % of control | dose: 10.0 mg/kg/injection, schedule: Q01DX001 (ip), vehicle: other 98 % of control | dose: 10.0 mg/kg/injection, schedule: Q01DX009 (ip), vehicle: saline 105 % of control | dose: 20.0 mg/kg/injection, schedule: Q01DX001 (ip), vehicle: other 101 % of control | dose: 20.0 mg/kg/injection, schedule: Q01DX009 (ip), vehicle: saline 105 % of control | dose: 40.0 mg/kg/injection, schedule: Q01DX001 (ip), vehicle: other 106 % of control | dose: 40.0 mg/kg/injection, schedule: Q01DX009 (ip), vehicle: saline 113 % of control | dose: 50.0 mg/kg/injection, schedule: Q01DX001 (ip), vehicle: other 94 % of control | dose: 80.0 mg/kg/injection, schedule: Q01DX001 (ip), vehicle: other 97 % of control | [6] 96 % of control

CCN(CC)CCSC(CO)c1ccccc1 (centres undefined)
inactive: dose: 75.0 mg/kg/injection, schedule: Q04DX003 (ip), vehicle: Klucel (hydroxypropylcellulose) (HPC) 97 % of control | dose: 150.0 mg/kg/injection, schedule: Q04DX003 (ip), vehicle: Klucel (hydroxypropylcellulose) (HPC) 92 % of control

CCOC(=O)/C=[C](\C(=O)OCC)[Sn]([CH2]C)([CH2]C)[CH2]C
inactive: dose: 50.0 mg/kg/injection, schedule: Q01DX009 (ip), vehicle: saline with Tween-80 104 % of control | dose: 100.0 mg/kg/injection, schedule: Q01DX009 (ip), vehicle: saline with Tween-80 96 % of control | dose: 200.0 mg/kg/injection, schedule: Q01DX009 (ip), vehicle: saline with Tween-80 93 % of control

CCCCCCCCCCCCCCNC1=C(OC)C(=O)C(NCCCCCCCCCCCCCC)=C(OC)C1=O
inactive: [6] 95 % of control | dose: 200.0 mg/kg/injection, schedule: Q01DX001 (ip), vehicle: other 104 % of control | dose: 400.0 mg/kg/injection, schedule: Q01DX001 (ip), vehicle: other 90 % of control

CCOC(=O)N1N=C([P+](c2ccccc2)(c2ccccc2)c2ccccc2)CC1(c1ccccc1)c1ccccc1
inactive: dose: 25.0 mg/kg/injection, schedule: Q01DX001 (ip), vehicle: saline 98 % of control | [7] 104 % of control | [3] 104 % of control

[O-]c1c[n+](C23CCC(c4ccccc42)c2ccccc23)no1
inactive: [8] 102 % of control | [9] 100 % of control | [10] 102 % of control | [11] 103 % of control | [12] 95 % of control | [13] 100 % of control

CC(C)NC(=O)NC(C)C
inactive: [14] 100 % of control | [15] 96 % of control | [16] 94 % of control

CC(C)(C)c1cc(C=O)cc(C(C)(C)C)c1O
inactive: dose: 100.0 mg/kg/injection, schedule: Q04DX002 (ip), vehicle: saline with Tween-80 95 % of control | dose: 200.0 mg/kg/injection, schedule: Q04DX002 (ip), vehicle: saline with Tween-80 95 % of control | dose: 400.0 mg/kg/injection, schedule: Q04DX002 (ip), vehicle: saline with Tween-80 91 % of control

O=S1(=O)N2CN3CN(C2)CN1C3
inactive: [14] 94 % of control | [8] 97 % of control | [15] 102 % of control | [10] 100 % of control | [16] 104 % of control

CCOC(CN=Cc1ccc(Cl)c(Cl)c1)OCC
inactive: [9] 94 % of control | [11] 97 % of control | [13] 96 % of control

CC(NC(=O)OCc1ccccc1)C(=O)NC(CC(=O)O)C(=O)O (centres undefined)
inactive: [1] 96 % of control | dose: 25.0 mg/kg/injection, schedule: Q04DX003 (ip), vehicle: saline 93 % of control | [2] 98 % of control | dose: 50.0 mg/kg/injection, schedule: Q04DX003 (ip), vehicle: saline 98 % of control | dose: 100.0 mg/kg/injection, schedule: Q01DX009 (ip), vehicle: saline 93 % of control | dose: 100.0 mg/kg/injection, schedule: Q04DX003 (ip), vehicle: saline 97 % of control

O=C(NC(Cc1ccccc1)C(=O)CBr)OCc1ccccc1 (centres undefined)
inactive: dose: 100.0 mg/kg/injection, schedule: Q01DX001 (ip), vehicle: saline with Tween-80 103 % of control

COc1cc2cc3c4cc(OC)c(OC)cc4cc[n+]3c(/C=C/c3cccc([N+](=O)[O-])c3)c2cc1OC
inactive: dose: 100.0 mg/kg/injection, schedule: Q04DX002 (ip), vehicle: carboxymethylcellulose (CMC) 113 % of control | dose: 100.0 mg/kg/injection, schedule: Q04DX002 (ip), vehicle: other 97 % of control and 105 % of control and 109 % of control | dose: 100.0 mg/kg/injection, schedule: Q04DX003 (ip), vehicle: other 107 % of control | dose: 200.0 mg/kg/injection, schedule: Q04DX002 (ip), vehicle: carboxymethylcellulose (CMC) 109 % of control | dose: 200.0 mg/kg/injection, schedule: Q04DX002 (ip), vehicle: other 94 % of control and 104 % of control and 123 % of control | dose: 200.0 mg/kg/injection, schedule: Q04DX003 (ip), vehicle: other 119 % of control | dose: 400.0 mg/kg/injection, schedule: Q04DX002 (ip), vehicle: carboxymethylcellulose (CMC) 109 % of control | dose: 400.0 mg/kg/injection, schedule: Q04DX002 (ip), vehicle: other 108 % of control and 119 % of control | dose: 400.0 mg/kg/injection, schedule: Q04DX003 (ip), vehicle: other 105 % of control | dose: 800.0 mg/kg/injection, schedule: Q04DX002 (ip), vehicle: other 112 % of control

Cc1cccn2c(=O)cc(O)nc12
inactive: [7] 112 % of control | [3] 110 % of control | [4] 116 % of control | [5] 103 % of control

CCCCNC(=O)Nc1ccc(OC)cc1OC
inactive: [8] 101 % of control | [9] 92 % of control | [10] 96 % of control | [11] 95 % of control | [12] 118 % of control | [13] 95 % of control

O=C(CCCCl)N1CCCCC1
inactive: dose: 100.0 mg/kg/injection, schedule: Q04DX002 (ip), vehicle: saline 94 % of control | dose: 200.0 mg/kg/injection, schedule: Q04DX002 (ip), vehicle: saline 98 % of control | dose: 400.0 mg/kg/injection, schedule: Q04DX002 (ip), vehicle: saline 96 % of control
